pKi: −log10 of the molar value.
Key:
Carbonic anhydrase 9 [1] = molecular target: T1, Carbonic anhydrase 9 (Homo sapiens, UniProt Q16790); test: Inhibition of recombinant human carbonic anhydrase 9 preincubated for 10 mins by stopped flow CO2 hydrase assay
Carbonic anhydrase 1 = Carbonic anhydrase 1 (Homo sapiens, UniProt P00915); test: Inhibition of recombinant human carbonic anhydrase 1 pre-incubated for 10 mins by stopped flow CO2 hydrase assay
Carbonic anhydrase 2 = Carbonic anhydrase 2 (Homo sapiens, UniProt P00918); test: Inhibition of recombinant human carbonic anhydrase 2 pre-incubated for 10 mins by stopped flow CO2 hydrase assay
Carbonic anhydrase 12 = Carbonic anhydrase 12 (Homo sapiens, UniProt O43570); test: Inhibition of recombinant human carbonic anhydrase 12 preincubated for 6 hrs at 24 degC by stopped flow CO2 hydrase assay
Carbonic anhydrase 9 [2] = molecular target: T1, Carbonic anhydrase 9; test: Inhibition of recombinant human carbonic anhydrase 9 preincubated for 6 hrs at 24 degC by stopped flow CO2 hydrase assay

Carbonic anhydrase 1, sequence (P00915 whole entry): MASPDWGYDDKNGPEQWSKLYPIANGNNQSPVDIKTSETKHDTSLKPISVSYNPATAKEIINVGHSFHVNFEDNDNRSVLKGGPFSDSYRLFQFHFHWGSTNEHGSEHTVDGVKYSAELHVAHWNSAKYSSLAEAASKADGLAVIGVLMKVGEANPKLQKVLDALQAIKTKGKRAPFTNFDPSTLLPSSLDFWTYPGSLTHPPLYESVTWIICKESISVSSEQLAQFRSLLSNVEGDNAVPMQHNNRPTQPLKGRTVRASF
Carbonic anhydrase 12, sequence (O43570 whole entry): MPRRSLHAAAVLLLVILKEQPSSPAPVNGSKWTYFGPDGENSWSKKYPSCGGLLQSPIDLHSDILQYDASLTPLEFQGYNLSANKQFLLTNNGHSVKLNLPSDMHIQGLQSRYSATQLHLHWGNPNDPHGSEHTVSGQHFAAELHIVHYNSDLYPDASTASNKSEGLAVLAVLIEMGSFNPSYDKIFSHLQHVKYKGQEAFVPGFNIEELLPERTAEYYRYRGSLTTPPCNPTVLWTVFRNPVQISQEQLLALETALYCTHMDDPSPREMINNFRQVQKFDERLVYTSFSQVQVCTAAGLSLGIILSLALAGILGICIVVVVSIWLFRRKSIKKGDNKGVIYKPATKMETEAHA

Work on COc1ccc(N2CCN(Cc3cc(=O)oc4cc(OCc5ccccc5[N+](=O)[O-])ccc34)CC2)cc1 yielded a pKi (Carbonic anhydrase 9 [1]) of 5.27, a pKi (Carbonic anhydrase 1) of under 4.00 and a pKi (Carbonic anhydrase 2) of under 4.00.
For COc1cccc(COc2ccc3c(CN4CCN(Cc5ccccc5)CC4)cc(=O)oc3c2)c1, the pKi (Carbonic anhydrase 9 [1]) was 5.31, the pKi (Carbonic anhydrase 1) was under 4.00 and the pKi (Carbonic anhydrase 2) was under 4.00.
COc1ccc(N2CCN(Cc3cc(=O)oc4cc(OCc5ccc(Br)cc5)ccc34)CC2)cc1 showed a pKi (Carbonic anhydrase 9 [1]) of 6.05, a pKi (Carbonic anhydrase 1) of under 4.00 and a pKi (Carbonic anhydrase 2) of under 4.00.
Compound O=c1cc(CN2CCN(Cc3ccccc3)CC2)c2ccc(OCc3cccc(Cl)c3)cc2o1 has a pKi (Carbonic anhydrase 9 [1]) of 5.34, a pKi (Carbonic anhydrase 1) of under 4.00 and a pKi (Carbonic anhydrase 2) of under 4.00.
COc1ccc(N2CCN(Cc3cc(=O)oc4cc(OCc5cccc(OC)c5)ccc34)CC2)cc1 showed a pKi (Carbonic anhydrase 9 [1]) of 5.59, a pKi (Carbonic anhydrase 1) of under 4.00 and a pKi (Carbonic anhydrase 2) of under 4.00.
In the case of COc1ccc(N2CCN(Cc3cc(=O)oc4cc(OCc5cccc(Br)c5)ccc34)CC2)cc1, the pKi (Carbonic anhydrase 9 [1]) was 5.46, the pKi (Carbonic anhydrase 1) was under 4.00 and the pKi (Carbonic anhydrase 2) was under 4.00.
COc1ccc(N2CCN(Cc3cc(=O)oc4cc(OCc5ccc([N+](=O)[O-])cc5)ccc34)CC2)cc1 showed a pKi (Carbonic anhydrase 9 [1]) of 5.58, a pKi (Carbonic anhydrase 1) of under 4.00 and a pKi (Carbonic anhydrase 2) of under 4.00.
For COc1ccc(N2CCN(Cc3cc(=O)oc4cc(OCc5cccc(Cl)c5)ccc34)CC2)cc1, the pKi (Carbonic anhydrase 9 [1]) was 5.14, the pKi (Carbonic anhydrase 1) was under 4.00 and the pKi (Carbonic anhydrase 2) was under 4.00.
With Cc1cc(C)cc(COc2ccc3c(CN4CCN(Cc5ccccc5)CC4)cc(=O)oc3c2)c1 the pKi (Carbonic anhydrase 9 [1]) was 6.11, the pKi (Carbonic anhydrase 1) was under 4.00 and the pKi (Carbonic anhydrase 2) was under 4.00.
O=c1cc(CN2CCN(Cc3ccccc3)CC2)c2ccc(OCc3cccc(Br)c3)cc2o1 was tested, and the pKi (Carbonic anhydrase 9 [1]) was 6.07, the pKi (Carbonic anhydrase 1) was under 4.00 and the pKi (Carbonic anhydrase 2) was under 4.00.
For O=c1cc(CN2CCN(Cc3ccccc3)CC2)c2ccc(OCc3cc(F)ccc3F)cc2o1, the pKi (Carbonic anhydrase 9 [1]) was 5.35, the pKi (Carbonic anhydrase 1) was under 4.00 and the pKi (Carbonic anhydrase 2) was under 4.00.
COc1ccc(N2CCN(Cc3cc(=O)oc4cc(OCc5ccccc5)ccc34)CC2)cc1 gave a pKi (Carbonic anhydrase 9 [1]) of 5.26, a pKi (Carbonic anhydrase 1) of under 4.00 and a pKi (Carbonic anhydrase 2) of under 4.00.
Work on N#Cc1ccc(Cn2cc(COc3ccc4c(CCl)cc(=O)oc4c3)nn2)cc1 yielded a pKi (Carbonic anhydrase 12) of 6.21 and a pKi (Carbonic anhydrase 9 [2]) of 7.49.
COc1ccc(N2CCN(Cc3cc(=O)oc4cc(OCc5ccccc5F)ccc34)CC2)cc1 gave a pKi (Carbonic anhydrase 9 [1]) of 5.41, a pKi (Carbonic anhydrase 1) of under 4.00 and a pKi (Carbonic anhydrase 2) of under 4.00.
In the case of O=c1cc(CN2CCN(Cc3ccccc3)CC2)c2ccc(OCc3ccccc3[N+](=O)[O-])cc2o1, the pKi (Carbonic anhydrase 9 [1]) was 6.03, the pKi (Carbonic anhydrase 1) was under 4.00 and the pKi (Carbonic anhydrase 2) was under 4.00.
Compound O=c1cc(CN2CCN(Cc3ccccc3)CC2)c2ccc(OCc3ccccc3)cc2o1 has a pKi (Carbonic anhydrase 9 [1]) of 5.31, a pKi (Carbonic anhydrase 1) of under 4.00 and a pKi (Carbonic anhydrase 2) of under 4.00.
O=c1cc(CN2CCN(Cc3ccccc3)CC2)c2ccc(OCc3ccc(Br)cc3)cc2o1 gave a pKi (Carbonic anhydrase 1) of under 4.00 and a pKi (Carbonic anhydrase 2) of under 4.00.
With O=c1cc(CN2CCN(Cc3ccccc3)CC2)c2ccc(OCc3ccc([N+](=O)[O-])cc3)cc2o1 the pKi (Carbonic anhydrase 9 [1]) was 5.50, the pKi (Carbonic anhydrase 1) was under 4.00 and the pKi (Carbonic anhydrase 2) was under 4.00.
With COc1ccc(CSc2nnc(COc3ccc4c(C)cc(=O)oc4c3)o2)cc1 the pKi (Carbonic anhydrase 9 [1]) was 5.63.
COc1ccc(N2CCN(Cc3cc(=O)oc4cc(OCc5cc(C)cc(C)c5)ccc34)CC2)cc1 gave a pKi (Carbonic anhydrase 9 [1]) of 5.34, a pKi (Carbonic anhydrase 1) of under 4.00 and a pKi (Carbonic anhydrase 2) of under 4.00.
For O=c1cc(CN2CCN(Cc3ccccc3)CC2)c2ccc(OCc3ccccc3F)cc2o1, the pKi (Carbonic anhydrase 9 [1]) was 6.04, the pKi (Carbonic anhydrase 1) was under 4.00 and the pKi (Carbonic anhydrase 2) was under 4.00.

Reference: ChEMBL document CHEMBL4732245, “Synthesis and biological evaluation of novel 4,7-disubstituted coumarins as selective tumor-associated carbonic anhydrase IX and XII inhibitors” (Bioorg Med Chem Lett, 2021)
